Where two headings read alike, the source gives them in different places.
Experiment: In vivo pharmacokinetic study in male ICR mice (compound alone)
Conditions: male, ICR, mouse, plasma
Procedure: The pharmacokinetics profile of the newly developed antiviral compound C5N17B was subsequently evaluated in male ICR mice that were free from specific pathogens, aiming to assess its potential for therapeutic application in vivo.
A total of six male ICR mice were randomly assigned to two groups. One group received the test drug intravenously at a dosage of 2 mg kg^−1, while the other group received oral administration at a dosage of 10 mg kg^−1. To prepare solutions of C5N17B, 2.39 mg compound was dissolved in a mixture of 0.119 mL DMSO, 0.238 mL polyoxyl 15 hydroxystearate (Solutol), and 2.027 mL normal saline. For the intravenous group, blood samples were collected from the sinus jugular into heparinized centrifugation tubes at various time points after dosing: 5, 15, 30 min, 1, 2, 4, 6, 8, and 24 h. As for the oral administration group, blood samples were collected at similar time points (0.05 mL of blood each time). The collected blood samples were then centrifuged at a speed of 4000 rpm for 10 min to separate plasma, which was subsequently stored at −20 °C until further LC‐MS analysis to determine the concentration of C5N17B. Briefly, the analysis involved adding 20 µL of plasma, sample calibration standard, quality control, and dilution quality control, and blank samples into respective wells on a 96‐well plate. Then each sample was quenched with 200 µL of internal standard (the blank sample was quenched with 200 µL of ACN: MeOH = 1:1), followed by vortex‐mixed for 5 min, and centrifuged for 0.5 min at 4000 rpm, 4 °C. Next, a 100 µL portion of supernatant was transferred to another clean 96‐well plate and diluted with 100 µL of water, vortex‐mixed for 5 min and centrifuged for 10 min at 4000 rpm, 4 °C, then the sample was injected for LC‐MS/MS analysis. All samples were quantified using an LC‐MS/MS‐AR Triple Quad 5500+ (SCIEX, USA) and the ExionLC liquid phase system. The mobile phase was 0.1% formic acid‐water/ACN with gradient elute at a flow rate of 0.8 mL mi^−1n (total time 2.20 min), and the detection wavelength was 225 nm. All blood samples were centrifuged using an Eppendorf 5424R centrifuge and quantified using an LC‐MS/MS‐AR Triple Quad 5500+ (SCIEX, USA). The pharmacokinetic parameters were calculated by WinNolin 8.2 software.

Cc1cncc(C(=O)N2C[C@H]3CC[C@@H](C2)N3[C@H](c2cccc(F)c2)c2cn(CCc3ccsc3)nn2)c1 [Compound C5N17B]
AUC (iv, 2 mg/kg, i.v. 2 mg kg^−1, male ICR mice, n = 3, read-out: AUC0‐∞, i.v.): 65.9 ± 14.9 ng·h/mL
clearance (iv, 2 mg/kg, i.v. 2 mg kg^−1, male ICR mice, n = 3, read-out: CL, i.v. (converted)): 524 mL/min/kg
Cmax (iv, 2 mg/kg, i.v. 2 mg kg^−1, male ICR mice, n = 3, read-out: Cmax, i.v.): 237 ± 53.6 ng/mL
MRT (iv, 2 mg/kg, i.v. 2 mg kg^−1, male ICR mice, n = 3, read-out: MRT0‐t, i.v.): 5.81 ± 894 min
MRT (iv, 2 mg/kg, i.v. 2 mg kg^−1, male ICR mice, n = 3, read-out: MRT0‐∞, i.v.): 6.96 ± 0.391 min
Tmax (iv, 2 mg/kg, i.v. 2 mg kg^−1, male ICR mice, n = 3, read-out: Tmax, i.v.): 4.98 min
half-life (iv, 2 mg/kg, i.v. 2 mg kg^−1, male ICR mice, n = 3, read-out: t1/2, i.v. (converted)): 6.6 min
bioavailability (oral, 10 mg kg^−1, p.o. 10 mg kg^−1 vs i.v. 2 mg kg^−1, male ICR mice, read-out: F (oral bioavailability)): 13%
concentration at 5 min (oral, 10 mg/kg, PO 10 mg/kg (10MPK), 5 min, mean of mice 4#-6#, read-out: Plasma concentration, Mean): 40.6 ng/mL
concentration at 15 min (oral, 10 mg/kg, PO 10 mg/kg (10MPK), 15 min, mouse plasma, individual mice 4-6, read-out: Plasma concentration (Calculated Concentration)): 18 ng/mL
concentration at 30 min (oral, 10 mg/kg, PO 10 mg/kg (10MPK), 30 min, sample marked "re", individual mouse, read-out: Plasma concentration (Calculated Concentration), re-analysis): 4.52 ng/mL
concentration at 1 hr (oral, 10 mg/kg, PO 10 mg/kg (10MPK), 1 hr, samples marked "re", individual mice, read-out: Plasma concentration (Calculated Concentration), re-analysis): 7.4 ng/mL
concentration at 2 hr (oral, 10 mg/kg, PO 10 mg/kg (10MPK), 2 hr, sample marked "re", individual mouse, read-out: Plasma concentration (Calculated Concentration), re-analysis): 15.7 ng/mL
concentration at 4 h (oral, 10 mg/kg, PO 10 mg/kg (10MPK), 4 hr, mouse plasma, individual mice 4-6, read-out: Plasma concentration (Calculated Concentration)): 5.85 ng/mL
concentration at 6 h (oral, 10 mg/kg, PO 10 mg/kg (10MPK), 6 hr, mouse plasma, individual mice 4-6, read-out: Plasma concentration (Calculated Concentration)): 2.52 ng/mL
Tmax (po, 10 mg/kg, PO 10 mg/kg (10MPK), individual mice 4#-6#, read-out: Tmax): 5 min
half-life (po, 10 mg/kg, PO 10 mg/kg (10MPK), mean of mice 4#-6#, read-out: T1/2, Mean (converted)): 213 min
Tmax (po, 10 mg/kg, PO 10 mg/kg (10MPK), mean of mice 4#-6#, read-out: Tmax, Mean): 5 min
concentration at 0.5 h (po, 10 mg/kg, PO 10 mg/kg, 0.50 h, mean of mice 4#-6#, read-out: plasma concentration, Mean): 8.28 ng/mL
concentration at 1 h (po, 10 mg/kg, PO 10 mg/kg, 1 h, mean of mice 4#-6#): 7.2 ng/mL
concentration at 2 h (po, 10 mg/kg, PO 10 mg/kg, 2 h, mean of mice 4#-6#): 10.5 ng/mL
concentration at 4 h (po, 10 mg/kg, PO 10 mg/kg, 4 h, individual mice 4#-6#, read-out: plasma concentration): 5.85 ng/mL
concentration at 4 h (po, 10 mg/kg, PO 10 mg/kg, 4 h, mean of mice 4#-6#, read-out: plasma concentration, Mean): 5.98 ng/mL
concentration at 6 h (po, 10 mg/kg, PO 10 mg/kg, 6 h, individual mice 4#-6#, read-out: plasma concentration): 2.52 ng/mL
concentration at 6 h (po, 10 mg/kg, PO 10 mg/kg, 6 h, mean (only 5# quantifiable), read-out: plasma concentration, Mean): 2.52 ng/mL
AUC(0-t) (po, 10 mg/kg, PO 10 mg/kg, individual mice 4#-6#, read-out: AUC0-t): 30.4 ng·h/mL
AUC(0-inf) (po, 10 mg/kg, PO 10 mg/kg, individual mice 4#-6#, read-out: AUC0-∞): 59.6 ng·h/mL
bioavailability (po, 10 mg/kg, PO 10 mg/kg, individual mice 4#-6#, read-out: F): 9.56%
MRT last (po, 10 mg/kg, PO 10 mg/kg, individual mice 4#-6#, read-out: MRT0-t): 97.2 min
AUC(0-inf) (po, 10 mg/kg, PO 10 mg/kg, individual mice 4-6, read-out: AUCINF_obs): 59.6 ng·h/mL
AUC(0-inf) (po, 10 mg/kg, PO 10 mg/kg, individual mice 4-6, read-out: AUCINF_pred): 55 ng·h/mL
AUC (po, 10 mg/kg, PO 10 mg/kg, individual mice 4-6, read-out: AUCall): 30.4 ng·h/mL
AUC(0-t) (po, 10 mg/kg, PO 10 mg/kg, individual mice 4-6, read-out: AUClast): 30.4 ng·h/mL
CL/F (po, 10 mg/kg, PO 10 mg/kg, individual mice 4-6, read-out: Cl_F_obs (converted)): 2800 mL/min/kg
MRT last (po, 10 mg/kg, PO 10 mg/kg, individual mice 4-6, read-out: MRTlast): 97.3 min
Tmax (po, 10 mg/kg, PO 10 mg/kg, individual mice 4-6, read-out: Tmax): 5 min
AUC(0-t) (po, 10 mg/kg, PO 10 mg/kg, mean of mice 4#-6#, read-out: AUC0-t, Mean): 41.3 ng·h/mL
AUC(0-inf) (po, 10 mg/kg, PO 10 mg/kg, mean of mice 4#-6#, read-out: AUC0-∞, Mean): 71.9 ng·h/mL
Cmax (po, 10 mg/kg, PO 10 mg/kg, mean of mice 4#-6#, read-out: Cmax, Mean): 40.6 ng/mL
MRT last (po, 10 mg/kg, PO 10 mg/kg, mean of mice 4#-6#, read-out: MRT0-t, Mean): 107 min
MRT inf (po, 10 mg/kg, PO 10 mg/kg, mean of mice 4#-6#, read-out: MRT0-∞, Mean): 300 min
AUC (po, 10 mg/kg, p.o. 10 mg kg^−1, male ICR mice, n = 3, read-out: AUC0‐t, p.o.): 41.3 ± 9.5 ng·h/mL
AUC (po, 10 mg/kg, p.o. 10 mg kg^−1, male ICR mice, n = 3, read-out: AUC0‐∞, p.o.): 71.9 ± 26 ng·h/mL
Cmax (po, 10 mg/kg, p.o. 10 mg kg^−1, male ICR mice, n = 3, read-out: Cmax, p.o.): 40.6 ± 24.1 ng/mL
MRT (po, 10 mg/kg, p.o. 10 mg kg^−1, male ICR mice, n = 3, read-out: MRT0‐t, p.o.): 107 ± 8.7 min
MRT (po, 10 mg/kg, p.o. 10 mg kg^−1, male ICR mice, n = 3, read-out: MRT0‐∞, p.o.): 300 ± 108 min
Tmax (po, 10 mg/kg, p.o. 10 mg kg^−1, male ICR mice, n = 3, read-out: Tmax, p.o.): 4.8 min
half-life (po, 10 mg/kg, p.o. 10 mg kg^−1, male ICR mice, n = 3, read-out: t1/2, p.o. (converted)): 213 ± 72 min
Cmax (po, 10 mg/kg, p.o. 10 mg kg^−1, male ICR mice, read-out: Cmax, p.o.): 78.6 nM

— article PMC11578313, “Miniaturized Modular Click Chemistry‐enabled Rapid Discovery of Unique SARS‐CoV‐2 M^pro Inhibitors With Robust Potency and Drug‐like Profile” (Advanced Science, 2024)
